{"source": "paper PMC11129182", "about": "“Development of Inhibitors, Probes, and PROTAC Provides a Complete Toolbox to Study PARK7 in the Living Cell” (Journal of Medicinal Chemistry, 2024)", "test_system": "other proteins of A549 cells", "assay": "TMT-based global proteomic profiling in A549 cells, other proteins", "type": "cell-based, Homo sapiens", "conditions": "A549 cells, 5 μM, 8 h", "procedure": "A549 cells were seeded into 10 cm plates in 10 mL of media. […] Cells were lysed using a 5% SDS lysis buffer (100 mM Tris-HCl, pH 7.6) and were incubated at 95 °C for 4 min. Protein determination was performed using the Pierce BCA Gold protein assay. 100 μg of protein of each sample was reduced and alkylated, and excess iodoacetamide was quenched using 5 mM TCEP, 15 mM iodoacetamide, and 10 mM DTT, respectively. The protein was pelleted down using chloroform/methanol precipitation, and the resulting pellets were resolubilized in 40 mM HEPES pH 8.4. […] The Pierce BCA Gold protein assay was used to determine the peptide concentration. The peptides were labeled with TMTpro Label Reagents in a 1:4 ratio by mass (peptides/TMT reagents) for 1 h at RT. Five μL of 6% hydroxylamine was added to quench excess TMT reagent and incubated for 15 min at RT. Samples were pooled and lyophilized. The sample was subsequently fractionated on an Agilent 1200 series HPLC system (Agilent Technologies). 75 μg of the pooled sample was dissolved in solvent A (10 mM NH4HCO3, pH 8.4), injected onto, and eluted from an Agilent Eclipse Plus C18 2.1 × 150 mm 3.5 μm column (Agilent Technologies). The gradient was run from 2 to 90% solvent B (10 mM NH4HCO3, pH 8.4 final concentration, 20/80 water/acetonitrile v/v) in 30 min at a flow rate of 200 μL/min. Twelve fractions were made; every 30 s a fraction was collected in a vial, and the eluate of the next 30 s was collected in the next vial and so on until it loops back to the first vial (5 loops of 6 min each). Afterward, the samples were lyophilized.\n2.2.07 (www.matrixscience.com) for protein identification. Mascot searches were with 10 ppm and 0.02 Da deviation for precursor and fragment mass, respectively. Enzyme specificity was set to trypsin. Up to two missed cleavages were allowed. Methionine oxidation and acetyl on protein N-terminus were set as variable modifications. Carbamidomethyl on Cys and TMTpro on Lys and N-terminus were set as fixed modifications. Protein FDR of 1% was set. Normalization was on total peptide amount. The values for each TMT channel were normalized to the average of the values for the DMSO samples for the same peptide, and these values were named FC. The log2 FC values of all replicates for the same master protein were averaged to give the “Average log2 FC”. A one-sample t test was performed against the null hypothesis of log2 FC = 0, and the resulting −log10p values were reported for each protein. The volcano plot was plotted using GraphPad Prism v.9.01."}
{"smiles": "N#CN1CC[C@@H](C(=O)Nc2nc3c(s2)CN(C(=O)c2cc(-n4ccnn4)ccc2F)CC3)C1", "note": "[Compound 84, (R)-1-Cyano-N-(5-(2-fluoro-5-(1H-1,2,3-triazol-1-yl)benzoyl)-4,5,6,7-tetrahydrothiazolo[5,4-c]pyridin-2-yl)pyrrolidine-3-carboxamide]", "values": [{"measurement": "DOP1B protein level (total proteome profiling)", "value": "downregulated"}]}
